Patent US9141756B1, “Multi-scale complex systems transdisciplinary analysis of response to therapy” (University of Southern California, priority 2010, dated 2015)
Where two headings read alike, the source gives them in different places.

What was measured:
Eμ-myc lymphomas = settings: cited from earlier work
[1] = tested on: A431-sensitive cancer cell line; test: SILAC proteomic profiling of response to gefitinib

SMILES | Phenotype: response to CTX (Eμ-myc lymphomas; Eμ-Myc genotype) | Phenotype: response to CTX (Eμ-myc lymphomas; Eμ-Myc/Arf −/− genotype (lymphoma lacking ARF)) | Phenotype: response to CTX (Eμ-myc lymphomas; Eμ-Myc/Bcl2 genotype) | Phenotype: response to CTX (Eμ-myc lymphomas; Eμ-Myc/p53 −/− genotype (lymphoma lacking p53)) | proteins showing a statistically significant change in abundance following treatment ([1]; A431 cells, SILAC) | potential cell-surface biomarkers showing changes in abundance in response to therapy ([1]; both in vitro and in vivo (xenograft)) | additional proteins showing changes in the secretome and serum ([1]; secretome and serum)
O=P1(N(CCCl)CCCl)NCCCO1 (stereo not shown) [CTX, cyclophosphamide] | variable response to CTX | slightly resistant to CTX | medium resistant to CTX | highly resistant to CTX |  |  | 
COc1cc2ncnc(Nc3ccc(F)c(Cl)c3)c2cc1OCCCN1CCOCC1 [geftinib, gefitinib] |  |  |  |  | 400 | Ten | seven
